Reference: patent publication US10179194B2, “Self-assembling peptides, peptidomimetics and peptidic conjugates as building blocks for biofabrication and printing” (Agency for Science, Technology and Research, priority 2013, dated 2019)
Peptide text beside a SMILES is read from it.

How the values were obtained:
guinea pigs = settings: guinea pig, in vivo
[1] = test system: Chinese hamster ovary cells
[2] = Stimuli-responsive gelation (minimum gelation concentration); assay type: physicochemical
Protocol: Ac-LIVAGK-NH2 (SEQ ID NO: 20) forms hydrogels at 20 mg/mL in water, 12 mg/mL in saline, 7.5 mg/mL in PBS, and 10 mg/mL in 10 mM NaOH.(B) The rigidity, as represented by the storage modulus (G′), of 20 mg/mL Ac-LIVAGK-NH2 hydrogels increases by one order of magnitude to 10 kPa when dissolved in normal saline(NaCl) as compared to water at 1 kPa. In phosphate buffered saline (PBS), G′ increases to 40 kPa. The stiffness also increases with peptide concentration. (C) The addition of sodium hydroxide (NaOH) enhances the rigidity of 20 mg/mL Ac-LIVAGK-NH2 (SEQ ID NO: 20) hydrogel from 1 kPa in water to 80 kPa. The rigidity increases with NaOH concentration. (D) Hydrogel droplet arrays of various dimensions can be obtained by mixing equivolumes of peptide solution (such as 10 mg/mL Ac-ILVAGK-NH2)(SEQ ID NO: 20) and PBS containing small molecules. Bioactive moieties can also be encapsulated; 1 μL droplets with green food colouring and 488 nm emission quantum dots, 2 μL droplets with red food colouring and 568 nm emission fluorophore conjugated to a secondary antibody, and 5 μL droplets with methylene blue and DAPI. (E) Hydrogel “noodles” are obtained by extruding 5 mg/mL Ac-ILVAGK-NH2 (SEQ ID NO: 20) solution through a 27 gauge needle into a concentrated salt bath.
• Peptide sequence: Ac-LIVAGD-COOH (SEQ ID NO: 17) • Molecular weight: 629.56 • (1) Temperature Sweep Study for Ac-LD6 (L) (SEQ ID NO : 17): • (a) The peptide mixture was then placed on rheometer lower plate. […]

[3] = test system: New Zealand White rabbits; experiment: Induced disc degeneration rabbit model (injectable therapy); assay type: in vivo
Protocol: FIG. 14 Evaluation of an injectable therapy in a rabbit model of degenerative disc disease. • (A) In this animal model, three lumbar intervertebral discs between the L3 and L6 vertebrae were punctured and their nucleus pulposus (NP) content aspirated. One month post-injury, two different treatments were injected into the NP space. The first treatment consists of 20 mg/mL of Ac-LIVAGK-NH2 (SEQ ID NO: 20) in PBS and gadolinium-DTPA (Gd-DTPA), a T1 MRI contrast agent. The second therapy consists of labeled donor rabbit NP cells encapsulated in 20 mg/mL of Ac-LIVAGK-NH2 (SEQ ID NO: 20) in PBS. The cells were labeled with FITC-conjugated iron oxide nanoparticles, which are T2 MRI contrastophores. […] In comparison, damaged untreated discs (D) are darker. […] The healthy disc was obtained from animal R245 (disc L2/L3), while the damaged disc was from R334 (L4/L5). The hydrogel treated disc imaged is L3/L4 from R245 and the cell therapy disc is L5/L6 of R328. At higher magnification, faintly fluorescent cells could be observed for discs that received cell therapy.
Induced disc degeneration rabbit model. […]
We designed an injectable therapy wherein our stimuli-responsive peptide Ac-LIVAGK-NH2 (SEQ ID NO: 20) was administered as a low viscosity solution which subsequently gels in situ. This therapy was evaluated in the induced disc degeneration rabbit model. […]

[4] = Rheology of hydrogels, storage modulus G'; assay type: physicochemical
Protocol: Hydrogel samples were prepared in polydimethysiloxane moulds to obtain approximately 1 mm thick, 8 mm diameter discs. Dynamic strain and oscillatory frequency sweep experiments were carried out using the ARES-G2 Rheometer (TA Instruments, Piscataway, N.J.) with 8 mm titanium parallel plate geometry. The effects of varying several parameters on viscoelastic properties were studied as follows: • (1) Effect of varying concentration • (2) Effect of varying ionic strength of the solution (water vs saline vs PBS) • (3) Effect of varying pH Extrusion from 27 Gauge Needle
Rheology. Hydrogel samples were prepared in polydimethysiloxane moulds to obtain approximately 1 mm thick, 8 mm diameter discs. Dynamic strain and oscillatory frequency sweep experiments were carried out using the ARES-G2 Rheometer (TA Instruments, Piscataway, N.J.) with 8 mm titanium parallel plate geometry.

[5] = Self-assembly into aggregates and fibres in aqueous solution; assay type: physicochemical
Protocol: It is in some embodiments stable in aqueous solution at physiological conditions at ambient temperature for a period of time in the range from 1 day to 1 month or more. It may in some embodiments be stable in aqueous solution at physiological conditions at 90° C. for at least 1 hour, at least 2 hours, at least 3 hours, at least 4 hours or at least 5 hours An amphiphilic linear sequence of an amphiphilic peptide and/or peptoid including an amphiphilic linear peptide and/or peptoid, is capable of providing a self assembling α-helical fiber in aqueous solution under physiological conditions. The peptides/peptoids (typically 3-7-mers) in the L- or D-form can self assemble into supramolecular helical fibers which are organized into mesh-like structures mimicking biological substances such as collagen. It has previously been observed in X-ray crystallography that peptides of a length of 3 to 6 amino acids with repetitive alanine containing sequences and an acetylated […] take a helical conformation (Hatakeyama, Y, et al, Angew. Chem. Int. Ed. (2009) 8695-8698). Using peptides with an amphiphilic sequence, Ac-LD6 (L), the formation of aggregates has for example been observed already at 0.1 mg/ml. […]

CC[C@H](C)[C@H](NC(=O)[C@H](CC(C)C)NC(C)=O)C(=O)N[C@H](C(=O)N[C@@H](C)C(=O)NCC(=O)N[C@@H](CCCCN)C(N)=O)C(C)C [Ac-LIVAGK-NH2] (Ac-LIVAGK-NH2)
irritation or allergic reactions (guinea pigs): no irritation or allergic reactions | reactions following subsequent immune challenge (guinea pigs): no reactions were observed | systemic signs of toxicity (guinea pigs): did not exhibit any systemic signs of toxicity | Breaks SB (chromosome break) [1]: 2 | Breaks TB (chromatid break) [1]: 3 | Cells with aberrations (excluding gaps) [1]: 5 | D (deletion) [1]: 0 | Gaps SG (chromosome gap) [1]: 2 | Inter Chromosomal Rearrangements CR (complex) [1]: 0 | Inter Chromosomal Rearrangements DC (dicentric chromosome) [1]: 0 | Inter Chromosomal Rearrangements QR (quadradial) [1]: 0 | Inter Chromosomal Rearrangements R (ring) [1]: 0 | Inter Chromosomal Rearrangements TR (triradial) [1]: 0 | Other aberrations DM (double minute) [1]: 0 | Other aberrations PV (pulverized) [1]: 0 | mutagenicity (genotoxicity assays) [1]: non-mutagenic | concentration at which hydrogels form ([2]; in 10 mM NaOH): 10000 µg/mL | concentration at which hydrogels form ([2]; in PBS): 7500 µg/mL | concentration at which hydrogels form ([2]; in saline): 12000 µg/mL | concentration at which hydrogels form ([2]; in water): 20000 µg/mL | immune response and tissue integration in histology sections of discs ([3]; 20 mg/mL in PBS with Gd-DTPA, or with labeled donor rabbit NP cells, two month post-treatment): integrated with the tissue and did not elicit an immune response | time to gelation in situ ([3]; approximately 100 μL of 20 mg/mL peptide in PBS injected into a damaged NP): ≤ 5 min | storage modulus (G′) ([4]; 20 mg/mL hydrogel in normal saline (NaCl)): 10 kPa | storage modulus (G′) ([4]; 20 mg/mL hydrogel in phosphate buffered saline (PBS)): 40 kPa | storage modulus (G′) ([4]; 20 mg/mL hydrogel in water): 1 kPa | storage modulus (G′) ([4]; 20 mg/mL hydrogel with addition of sodium hydroxide (NaOH)): 80 kPa

Ac-LIVAGD-OH [Ac-LD6 (L)]
concentration at which formation of aggregates is observed [5]: 100 µg/mL | concentration at which peptide monomers align to form fibrous structures [5]: 1000 µg/mL
